Numbers after ± are expanded uncertainties.
Legend:
[1] = 101.33 kPa, Liquid, Falling or rolling sphere viscometry
[2] = wn = mass fraction of the nth substance listed; details: 101 kPa, Liquid; for viscosity: Falling or rolling sphere viscometry; for binary diffusion coefficient: Taylor dispersion method; for mass density: Vibrating tube method

O [water]
[1]
Details	viscosity [mPa·s]
303.15 K	0.789 ± 0.017
308.15 K	0.714 ± 0.015
313.15 K	0.651 ± 0.014
318.15 K	0.598 ± 0.013
323.15 K	0.541 ± 0.012

CN(C)CCCN(C)C [N,N,N',N'-tetramethyl-1,3-propanediamine] + O
[2]
Details	binary diffusion coefficient [m2/s]	mass density [kg/m3]	viscosity [mPa·s]
303.15 K, w1 = 0	7.01e-10	–	–
303.15 K, w1 = 0.1	4.86e-10	983.3 ± 1	1.345 ± 0.029
303.15 K, w1 = 0.2	3.74e-10	972.5 ± 1	2.335 ± 0.052
303.15 K, w1 = 0.3	3.05e-10	960.1 ± 1	3.923 ± 0.086
303.15 K, w1 = 0.4	2.56e-10	944.6 ± 1	6.081 ± 0.13
303.15 K, w1 = 1	–	774.8 ± 1.1	–
308.15 K, w1 = 0	7.99e-10	–	–
308.15 K, w1 = 0.1	5.53e-10	981.4 ± 1	1.183 ± 0.026
308.15 K, w1 = 0.2	4.41e-10	969.8 ± 1	1.985 ± 0.043
308.15 K, w1 = 0.3	3.57e-10	956.7 ± 1	3.192 ± 0.07
308.15 K, w1 = 0.4	2.89e-10	940.6 ± 1	4.853 ± 0.11
308.15 K, w1 = 1	–	770.9 ± 1.1	–
313.15 K, w1 = 0	9.04e-10	–	–
313.15 K, w1 = 0.1	6.16e-10	979.3 ± 1	1.051 ± 0.023
313.15 K, w1 = 0.2	4.83e-10	967 ± 1	1.709 ± 0.037
313.15 K, w1 = 0.3	4.09e-10	953.1 ± 1	2.669 ± 0.058
313.15 K, w1 = 0.4	3.45e-10	936.6 ± 1	3.838 ± 0.085
313.15 K, w1 = 1	–	767.4 ± 1.1	–
318.15 K, w1 = 0	1.01e-09	–	–
318.15 K, w1 = 0.1	6.82e-10	977 ± 1	0.941 ± 0.02
318.15 K, w1 = 0.2	5.41e-10	964 ± 1	1.488 ± 0.032
318.15 K, w1 = 0.3	4.58e-10	949.5 ± 1	2.264 ± 0.049
318.15 K, w1 = 0.4	3.82e-10	932.5 ± 1	3.182 ± 0.07
318.15 K, w1 = 1	–	765 ± 1.1	–
323.15 K, w1 = 0	1.08e-09	–	–
323.15 K, w1 = 0.1	7.48e-10	974.6 ± 1	0.846 ± 0.018
323.15 K, w1 = 0.2	6.07e-10	961 ± 1	1.311 ± 0.028
323.15 K, w1 = 0.3	5.14e-10	945.8 ± 1	1.945 ± 0.042
323.15 K, w1 = 0.4	4.32e-10	928.4 ± 1	2.681 ± 0.059
323.15 K, w1 = 1	–	761.4 ± 1.1	–
